# Reference: patent EP0726263A2, “Herbicidal (1,3,4)oxadiazoles and thiadiazoles” (American Cyanamid Company, priority 1995, dated 1996)
# How the values were obtained:
# Format in all cases: in vivo
# Galium aparine [1] = experiment: Herbicidal activity, postemergence test; conditions: post; sprayed onto seedling plants, 800 g of active material per hectare; evaluated 2 weeks after treatment
# Experimental: (§1) To evaluate their herbicidal activity, compounds according to the invention are tested using a representative range of plants: TRZAW Triticum aestivum HORVW Hordeum vulgare ZEAMX Zea mays GOSHI Gossypium hirsutum HELAN Helianthus annuus GLYMA Glycine max ALOMY Alopecurus myosuroides SETVI Setaria viridis ECHCG Echinochloa crus-galli GALAP Galium aparine STEME Stellaria media VERPE Veronica persica VIOAR Viola arvensis IPOHE Ipomoea hederacea LAMPU Lamium purpureum PAPRH Papaver rhoeas MATIN Matricaria inodora AMARE Amaranthus retroflexus ABUTH Abutilon theophrasti AMBEL Ambrosia artemisifolia CHEAL Chenopodium album
# (§2) The tests fall into two categories, preemergence and postemergence. The preemergence tests involve spraying a liquid formulation of the compound onto the soil in which the seeds have recently been sown. The postemergence tests involve spraying a liquid formulation of the compound onto seedling plants.
# (§3) The soil used in the tests is a prepared horticultural loam.
# (§4) The formulations used in the tests are prepared from solutions of the test compounds in acetone containing 0.4% by weight of an alkylphenol/ethylene oxide condensate available under the trade mark TRITON X-155. These acetone solutions are diluted with water and the resulting formulations applied at dosage levels corresponding to 800 g of active material per hectare in a volume equivalent to 900 litres per hectare.
# (§5) In the preemergence tests untreated sown soil and in the postemergence tests untreated soil bearing seedling plants are used as controls.
# (§6) Results of herbicide evaluation are expressed on a rating scale (0-9). The scale is based upon a visual observation of plant stand, vigor, malformation, size, chlorosis, and general plant appearance as compared to a control. Preemergence and postemergence treatments are evaluated at 3 and 2 weeks after treatment, respectively.
# Lamium purpureum [2] = experiment: Herbicidal activity, postemergence test; conditions: post; sprayed onto seedling plants, 800 g of active material per hectare; evaluated 2 weeks after treatment
# Experimental: as §1, §2, §3, §4, §5, §6
# Chenopodium album [3] = experiment: Herbicidal activity, postemergence test; conditions: post; sprayed onto seedling plants, 800 g of active material per hectare; evaluated 2 weeks after treatment
# Experimental: as §1, §2, §3, §4, §5, §6
# Stellaria media [4] = experiment: Herbicidal activity, postemergence test; conditions: post; sprayed onto seedling plants, 800 g of active material per hectare; evaluated 2 weeks after treatment
# Experimental: as §1, §2, §3, §4, §5, §6
# Papaver rhoeas [5] = experiment: Herbicidal activity, postemergence test; conditions: post; sprayed onto seedling plants, 800 g of active material per hectare; evaluated 2 weeks after treatment
# Experimental: as §1, §2, §3, §4, §5, §6
# Abutilon theophrasti [6] = experiment: Herbicidal activity, postemergence test; conditions: post; sprayed onto seedling plants, 800 g of active material per hectare; evaluated 2 weeks after treatment
# Experimental: as §1, §2, §3, §4, §5, §6
# Gossypium hirsutum [7] = experiment: Herbicidal activity, postemergence test; conditions: post; sprayed onto seedling plants, 800 g of active material per hectare; evaluated 2 weeks after treatment
# Experimental: as §1, §2, §3, §4, §5, §6
# Ipomoea hederacea [8] = experiment: Herbicidal activity, postemergence test; conditions: post; sprayed onto seedling plants, 800 g of active material per hectare; evaluated 2 weeks after treatment
# Experimental: as §1, §2, §3, §4, §5, §6
# Setaria viridis [9] = experiment: Herbicidal activity, postemergence test; conditions: post; sprayed onto seedling plants, 800 g of active material per hectare; evaluated 2 weeks after treatment
# Experimental: as §1, §2, §3, §4, §5, §6
# Hordeum vulgare [10] = experiment: Herbicidal activity, postemergence test; conditions: post; sprayed onto seedling plants, 800 g of active material per hectare; evaluated 2 weeks after treatment
# Experimental: as §1, §2, §3, §4, §5, §6
# Veronica persica [11] = experiment: Herbicidal activity, postemergence test; conditions: post; sprayed onto seedling plants, 800 g of active material per hectare; evaluated 2 weeks after treatment
# Experimental: as §1, §2, §3, §4, §5, §6
# Glycine max [12] = experiment: Herbicidal activity, postemergence test; conditions: post; sprayed onto seedling plants, 800 g of active material per hectare; evaluated 2 weeks after treatment
# Experimental: as §1, §2, §3, §4, §5, §6
# Zea mays [13] = experiment: Herbicidal activity, postemergence test; conditions: post; sprayed onto seedling plants, 800 g of active material per hectare; evaluated 2 weeks after treatment
# Experimental: as §1, §2, §3, §4, §5, §6
# Triticum aestivum [14] = experiment: Herbicidal activity, postemergence test; conditions: post; sprayed onto seedling plants, 800 g of active material per hectare; evaluated 2 weeks after treatment
# Experimental: as §1, §2, §3, §4, §5, §6
# Amaranthus retroflexus [15] = experiment: Herbicidal activity, postemergence test; conditions: post; sprayed onto seedling plants, 800 g of active material per hectare; evaluated 2 weeks after treatment
# Experimental: as §1, §2, §3, §4, §5, §6
# Alopecurus myosuroides [16] = experiment: Herbicidal activity, postemergence test; conditions: post; sprayed onto seedling plants, 800 g of active material per hectare; evaluated 2 weeks after treatment
# Experimental: as §1, §2, §3, §4, §5, §6
# Matricaria inodora [17] = experiment: Herbicidal activity, postemergence test; conditions: post; sprayed onto seedling plants, 800 g of active material per hectare; evaluated 2 weeks after treatment
# Experimental: as §1, §2, §3, §4, §5, §6
# Ambrosia artemisifolia [18] = experiment: Herbicidal activity, postemergence test; conditions: post; sprayed onto seedling plants, 800 g of active material per hectare; evaluated 2 weeks after treatment
# Experimental: as §1, §2, §3, §4, §5, §6
# Galium aparine [19] = experiment: Herbicidal activity, preemergence test; conditions: pre; sprayed onto soil, 800 g of active material per hectare; evaluated 3 weeks after treatment
# Experimental: as §1, §2, §3, §4, §5, §6
# Lamium purpureum [20] = experiment: Herbicidal activity, preemergence test; conditions: pre; sprayed onto soil, 800 g of active material per hectare; evaluated 3 weeks after treatment
# Experimental: as §1, §2, §3, §4, §5, §6
# Chenopodium album [21] = experiment: Herbicidal activity, preemergence test; conditions: pre; sprayed onto soil, 800 g of active material per hectare; evaluated 3 weeks after treatment
# Experimental: as §1, §2, §3, §4, §5, §6
# Stellaria media [22] = experiment: Herbicidal activity, preemergence test; conditions: pre; sprayed onto soil, 800 g of active material per hectare; evaluated 3 weeks after treatment
# Experimental: as §1, §2, §3, §4, §5, §6
# Papaver rhoeas [23] = experiment: Herbicidal activity, preemergence test; conditions: pre; sprayed onto soil, 800 g of active material per hectare; evaluated 3 weeks after treatment
# Experimental: as §1, §2, §3, §4, §5, §6
# Abutilon theophrasti [24] = experiment: Herbicidal activity, preemergence test; conditions: pre; sprayed onto soil, 800 g of active material per hectare; evaluated 3 weeks after treatment
# Experimental: as §1, §2, §3, §4, §5, §6
# Gossypium hirsutum [25] = experiment: Herbicidal activity, preemergence test; conditions: pre; sprayed onto soil, 800 g of active material per hectare; evaluated 3 weeks after treatment
# Experimental: as §1, §2, §3, §4, §5, §6
# Ipomoea hederacea [26] = experiment: Herbicidal activity, preemergence test; conditions: pre; sprayed onto soil, 800 g of active material per hectare; evaluated 3 weeks after treatment
# Experimental: as §1, §2, §3, §4, §5, §6
# Setaria viridis [27] = experiment: Herbicidal activity, preemergence test; conditions: pre; sprayed onto soil, 800 g of active material per hectare; evaluated 3 weeks after treatment
# Experimental: as §1, §2, §3, §4, §5, §6
# Hordeum vulgare [28] = experiment: Herbicidal activity, preemergence test; conditions: pre; sprayed onto soil, 800 g of active material per hectare; evaluated 3 weeks after treatment
# Experimental: as §1, §2, §3, §4, §5, §6
# Veronica persica [29] = experiment: Herbicidal activity, preemergence test; conditions: pre; sprayed onto soil, 800 g of active material per hectare; evaluated 3 weeks after treatment
# Experimental: as §1, §2, §3, §4, §5, §6
# Glycine max [30] = experiment: Herbicidal activity, preemergence test; conditions: pre; sprayed onto soil, 800 g of active material per hectare; evaluated 3 weeks after treatment
# Experimental: as §1, §2, §3, §4, §5, §6
# Zea mays [31] = experiment: Herbicidal activity, preemergence test; conditions: pre; sprayed onto soil, 800 g of active material per hectare; evaluated 3 weeks after treatment
# Experimental: as §1, §2, §3, §4, §5, §6
# Triticum aestivum [32] = experiment: Herbicidal activity, preemergence test; conditions: pre; sprayed onto soil, 800 g of active material per hectare; evaluated 3 weeks after treatment
# Experimental: as §1, §2, §3, §4, §5, §6
# Amaranthus retroflexus [33] = experiment: Herbicidal activity, preemergence test; conditions: pre; sprayed onto soil, 800 g of active material per hectare; evaluated 3 weeks after treatment
# Experimental: as §1, §2, §3, §4, §5, §6
# Alopecurus myosuroides [34] = experiment: Herbicidal activity, preemergence test; conditions: pre; sprayed onto soil, 800 g of active material per hectare; evaluated 3 weeks after treatment
# Experimental: as §1, §2, §3, §4, §5, §6
# Matricaria inodora [35] = experiment: Herbicidal activity, preemergence test; conditions: pre; sprayed onto soil, 800 g of active material per hectare; evaluated 3 weeks after treatment
# Experimental: as §1, §2, §3, §4, §5, §6
# Ambrosia artemisifolia [36] = experiment: Herbicidal activity, preemergence test; conditions: pre; sprayed onto soil, 800 g of active material per hectare; evaluated 3 weeks after treatment
# Experimental: as §1, §2, §3, §4, §5, §6
smiles,measurement,setting,value
C[C@H](NC(=O)c1nnc(-c2ccccc2F)o1)c1ccccc1 [Example 10],GALAP control rating (0-9),Galium aparine [1],6 (herbicidal effect)
same,LAMPU control rating (0-9),Lamium purpureum [2],8 (approaching complete kill)
same,CHEAL control rating (0-9),Chenopodium album [3],7 (good herbicidal effect)
same,STEME control rating (0-9),Stellaria media [4],9 (complete kill)
same,PAPRH control rating (0-9),Papaver rhoeas [5],8 (approaching complete kill)
same,ABUTH control rating (0-9),Abutilon theophrasti [6],9 (complete kill)
same,GOSHI control rating (0-9),Gossypium hirsutum [7],8 (approaching complete kill)
same,IPOHE control rating (0-9),Ipomoea hederacea [8],8 (approaching complete kill)
same,SETVI control rating (0-9),Setaria viridis [9],9 (complete kill)
same,HORVW control rating (0-9),Hordeum vulgare [10],4 (injury)
same,VERPE control rating (0-9),Veronica persica [11],9 (complete kill)
same,GLXMA control rating (0-9),Glycine max [12],4 (injury)
same,ZEAMX control rating (0-9),Zea mays [13],3 (moderate effect)
same,TRZAW control rating (0-9),Triticum aestivum [14],2 (slight effect)
same,AMARE control rating (0-9),Amaranthus retroflexus [15],9 (complete kill)
same,ALOMY control rating (0-9),Alopecurus myosuroides [16],0 (no effect)
same,MATIN control rating (0-9),Matricaria inodora [17],0 (no effect)
same,AMBEL control rating (0-9),Ambrosia artemisifolia [18],7 (good herbicidal effect)
same,GALAP control rating (0-9),Galium aparine [19],0 (no effect)
same,LAMPU control rating (0-9),Lamium purpureum [20],8 (approaching complete kill)
same,CHEAL control rating (0-9),Chenopodium album [21],8 (approaching complete kill)
same,STEME control rating (0-9),Stellaria media [22],9 (complete kill)
same,PAPRH control rating (0-9),Papaver rhoeas [23],9 (complete kill)
same,ABUTH control rating (0-9),Abutilon theophrasti [24],0 (no effect)
same,GOSHI control rating (0-9),Gossypium hirsutum [25],0 (no effect)
same,IPOHE control rating (0-9),Ipomoea hederacea [26],0 (no effect)
same,SETVI control rating (0-9),Setaria viridis [27],3 (moderate effect)
same,HORVW control rating (0-9),Hordeum vulgare [28],0 (no effect)
same,VERPE control rating (0-9),Veronica persica [29],9 (complete kill)
same,GLXMA control rating (0-9),Glycine max [30],2 (slight effect)
same,ZEAMX control rating (0-9),Zea mays [31],0 (no effect)
same,TRZAW control rating (0-9),Triticum aestivum [32],0 (no effect)
same,AMARE control rating (0-9),Amaranthus retroflexus [33],8 (approaching complete kill)
same,ALOMY control rating (0-9),Alopecurus myosuroides [34],1 (trace effect)
same,MATIN control rating (0-9),Matricaria inodora [35],8 (approaching complete kill)
same,AMBEL control rating (0-9),Ambrosia artemisifolia [36],3 (moderate effect)
